Experimental data published in patent US9765092B2, “Tricyclic piperidine compounds” (ACTELION PHARMACEUTICALS LTD, priority 2013, dated 2017).

Each molecule was assayed against human TPH1 (Homo sapiens (Human), UniProt P17752) (assay: Biochemical in vitro assay using fluorescence readout (TPH1 inhibition)). Conditions: full length human TPH1, 40 μM L-tryptophan, 15° C., 60 minutes, fluorescence at 540 nm; mean if determined several times.
Chain of human TPH1 (P17752 whole entry): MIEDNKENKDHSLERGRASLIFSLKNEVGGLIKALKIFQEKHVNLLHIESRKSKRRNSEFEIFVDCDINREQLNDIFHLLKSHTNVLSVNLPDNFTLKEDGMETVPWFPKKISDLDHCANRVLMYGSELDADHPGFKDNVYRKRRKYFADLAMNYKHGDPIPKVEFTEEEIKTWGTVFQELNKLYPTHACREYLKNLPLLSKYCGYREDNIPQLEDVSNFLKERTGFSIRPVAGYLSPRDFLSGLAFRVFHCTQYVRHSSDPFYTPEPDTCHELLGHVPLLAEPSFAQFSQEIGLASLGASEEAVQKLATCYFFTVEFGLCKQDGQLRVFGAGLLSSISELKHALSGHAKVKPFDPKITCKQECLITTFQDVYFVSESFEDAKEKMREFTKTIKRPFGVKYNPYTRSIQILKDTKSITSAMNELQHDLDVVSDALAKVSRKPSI

Going from `Cc1nn2c3c(nc2s1)CCN(C(=O)COc1ccc(C(F)(F)F)nc1Cl)C3c1cnc(N(C)C)s1` (stereo not shown) [Example 1.22.3, 2-((2-Chloro-6-(trifluoromethyl)pyridin-3-yl)oxy)-1-(5-(2-(dimethylamino)thiazol-5-yl)-2-methyl-7,8-dihydro-[1,3,4]thiadiazolo[2′,3′:2,3]imidazo[4,5-c]pyridin-6(5H)-yl)ethanone] to `Cc1nn2c3c(nc2s1)CCN(C(=O)COc1ccc(N2CC(F)(F)C2)nc1Cl)C3c1ccc(Cl)cc1F` (stereo not shown) [Example 1.4.18, 1-(5-(4-Chloro-2-fluorophenyl)-2-methyl-7,8-dihydro-[1,3,4]thiadiazolo[2′,3′:2,3]imidazo[4,5-c]pyridin-6(5H)-yl)-2-((2-chloro-6-(3,3-difluoroazetidin-1-yl)-pyridin-3-yl)oxy)ethanone], the IC50 falls from 136 nM to 3 nM (45-fold). The second is the more potent here.

Molecule `Cc1nn2c3c(nc2s1)CCN(C(=O)COc1ccc(N2CCOCC2)nc1Cl)C3c1csc(CO)c1` (stereo not shown) [Example 1.45.1, 2-((2-Chloro-6-morpholinopyridin-3-yl)oxy)-1-(5-(5-(hydroxymethyl)-thiophen-3-yl)-2-methyl-7,8-dihydro-[1,3,4]thiadiazolo[2′,3′:2,3]imidazo[4,5-c]pyridin-6(5H)-yl)ethanone] has an IC50 of 33 nM.

Same assay, conditions: human TPH1, fluorescence readout

Going from `Cc1cnc([C@H]2c3c(nc4sc(C)nn34)CCN2C(=O)COc2ccc(C3(N(C)C)CC3)nc2Cl)c(F)c1` [Example 1.31.12, (R)-2-((2-chloro-6-(1-(dimethylamino)cyclopropyl)pyridin-3-yl)oxy)-1-(5-(3-fluoro-5-methylpyridin-2-yl)-2-methyl-7,8-dihydro-[1,3,4]thiadiazolo[2′,3′:2,3]imidazo[4,5-c]pyridin-6(5H)-yl)ethanone] to `Cc1cnc(C2c3c(nc4sc(C)nn34)CCN2C(=O)COc2ccc(C#N)cc2Cl)c(F)c1` (stereo not shown) [Example 1.31.4, 3-chloro-4-(2-(5-(3-fluoro-5-methylpyridin-2-yl)-2-methyl-7,8-dihydro-[1,3,4]thiadiazolo[2′,3′:2,3]imidazo[4,5-c]pyridin-6(5H)-yl)-2-oxoethoxy)benzonitrile], the IC50 falls from 217 nM to 49 nM (4.4-fold).

`Cc1nn2c3c(nc2s1)CCN(C(=O)COc1ccc(C(=O)N(C)C)nc1Cl)C3c1ncccc1F` (stereo not shown) [Example 1.35.2, 6-chloro-5-(2-(5-(3-fluoropyridin-2-yl)-2-methyl-7,8-dihydro-[1,3,4]thiadiazolo[2′,3′:2,3]imidazo[4,5-c]pyridin-6(5H)-yl)-2-oxoethoxy)-N,N-dimethylpicolinamide] and `Cc1nn2c3c(nc2s1)CCN(C(=O)C(C)(C)Oc1ccc(C(=O)N(C)C)nc1Cl)C3c1ccc(Cl)cc1F` (stereo not shown) [Example 1.4.58, 6-chloro-5-((1-(5-(4-chloro-2-fluorophenyl)-2-methyl-7,8-dihydro-[1,3,4]thiadiazolo[2′,3′:2,3]imidazo[4,5-c]pyridin-6(5H)-yl)-2-methyl-1-oxopropan-2-yl)oxy)-N,N-dimethylpicolinamide] are within 1.5-fold of each other in IC50: 45 nM for the first, 55 nM for the second.

Compared with `COc1ccc(C2c3c(nc4sc(C)nn34)CCN2C(=O)COc2ccc(CN3CCOCC3)nc2Cl)c(F)c1` (stereo not shown) [Example 1.3.2, 2-((2-chloro-6-(morpholinomethyl)pyridin-3-yl)oxy)-1-(5-(2-fluoro-4-methoxyphenyl)-2-methyl-7,8-dihydro-[1,3,4]thiadiazolo[2′,3′:2,3]imidazo[4,5-c]pyridin-6(5H)-yl)ethanone], `Cc1nn2c3c(nc2s1)CCN(C(=O)COc1ccc(N2CCOCC2)nc1Cl)C3c1ccc(C2CC2)cc1F` (stereo not shown) [Example 1.6.17, 2-((2-chloro-6-morpholinopyridin-3-yl)oxy)-1-(5-(4-cyclopropyl-2-fluorophenyl)-2-methyl-7,8-dihydro-[1,3,4]thiadiazolo [2′,3′:2,3]imidazo[4,5-c]pyridin-6(5H)-yl)ethanone] is 3-fold lower in IC50: 9 nM for the first, 3 nM for the second.

`CCc1nc(NS(C)(=O)=O)ccc1OCC(=O)N1CCc2nc3sc(C(F)(F)F)nn3c2C1c1ccc(C)cc1F` (stereo not shown) [Example 5.3.1, N-(6-ethyl-5-(2-(5-(2-fluoro-4-methylphenyl)-2-(trifluoromethyl)-7,8-dihydro-[1,3,4]thiadiazolo[2′,3′:2,3]imidazo[4,5-c]pyridin-6(5H)-yl)-2-oxoethoxy)pyridin-2-yl)methanesulfonamide] and `Cc1ccc(C2c3c(nc4sc(C(F)F)nn34)CCN2C(=O)COc2ccc(NS(C)(=O)=O)nc2Cl)c(F)c1` (stereo not shown) [Example 8.2.1, N-(6-chloro-5-(2-(2-(difluoromethyl)-5-(2-fluoro-4-methylphenyl)-7,8-dihydro-[1,3,4]thiadiazolo[2′,3′:2,3]imidazo[4,5-c]pyridin-6(5H)-yl)-2-oxoethoxy)pyridin-2-yl)methanesulfonamide] are within 1.5-fold of each other in IC50: 28 nM for the first, 24 nM for the second.

Going from `Cc1nn2c3c(nc2s1)CCN(C(=O)COc1cc(F)c(N2CCOCC2)nc1Cl)C3c1ncc(C2CC2)cc1F` (stereo not shown) [Example 1.14.9, 2-((2-chloro-5-fluoro-6-morpholinopyridin-3-yl)oxy)-1-(5-(5-cyclopropyl-3-fluoropyridin-2-yl)-2-methyl-7,8-dihydro-[1,3,4]thiadiazolo[2′,3′:2,3]imidazo[4,5-c]pyridin-6(5H)-yl)ethanone] to `Cc1nn2c3c(nc2s1)CCN(C(=O)COc1ccc(NS(C)(=O)=O)nc1Cl)C3c1ncc(C2CC2)cc1F` (stereo not shown) [Example 1.14.13, N-(6-chloro-5-(2-(5-(5-cyclopropyl-3-fluoropyridin-2-yl)-2-methyl-7,8-dihydro-[1,3,4]thiadiazolo[2′,3′:2,3]imidazo[4,5-c]pyridin-6(5H)-yl)-2-oxoethoxy)pyridin-2-yl)methanesulfonamide], the IC50 rises from 4 nM to 7 nM (1.8-fold). The first is the more potent here.

Compared with `Cc1nn2c3c(nc2s1)CCN(C(=O)COc1ccc(S(=O)(=O)N(C)C)nc1Cl)C3c1ccc(Cl)cc1F` (stereo not shown) [Example 1.4.61, 6-chloro-5-(2-(5-(4-chloro-2-fluorophenyl)-2-methyl-7,8-dihydro-[1,3,4]thiadiazolo[2′,3′:2,3]imidazo[4,5-c]pyridin-6(5H)-yl)-2-oxoethoxy)-N,N-dimethylpyridine-2-sulfonamide], `Cc1nn2c3c(nc2s1)CCN(C(=O)COc1cnc(N(C)C)nc1Cl)C3c1ccc(Cl)cc1F` (stereo not shown) [Example 1.4.40, 2-((4-chloro-2-(dimethylamino)pyrimidin-5-yl)oxy)-1-(5-(4-chloro-2-fluorophenyl)-2-methyl-7,8-dihydro-[1,3,4]thiadiazolo [2′,3′:2,3]imidazo[4,5-c]pyridin-6(5H)-yl)ethanone] is 9.2-fold lower in IC50: 37 nM for the first, 4 nM for the second. The second is the more potent here.

`O=C(COc1ccc2ccncc2c1)N1CCc2nc3sccn3c2C1c1nc2ccccc2s1` (stereo not shown) [Example 6.12.9, 1-(5-(benzo[d]thiazol-2-yl)-7,8-dihydrothiazolo-[2′,3′:2,3]imidazo[4,5-c]pyridin-6(5H)-yl)-2-(isoquinolin-7-yloxy)ethanone] and `CCc1nn2c3c(nc2s1)CCN(C(=O)COc1ccc(-c2ncco2)nc1Cl)C3c1ccc(Cl)cc1F` (stereo not shown) [Example 3.1.3, 1-(5-(4-chloro-2-fluorophenyl)-2-ethyl-7,8-dihydro-[1,3,4]thiadiazolo[2′,3′:2,3]imidazo[4,5-c]pyridin-6(5H)-yl)-2-((2-chloro-6-(oxazol-2-yl)pyridin-3-yl)oxy)ethanone] are the same in IC50: 12 nM for the first, 12 nM for the second.

Compared with `Cc1nn2c3c(nc2s1)CCN(C(=O)COc1ccc(N2CCOCC2)nc1Cl)C3c1cnc(C(=O)N(C)C)s1` (stereo not shown) [Example 1.34.1, 5-(6-(2-((2-chloro-6-morpholinopyridin-3-yl)oxy)acetyl)-2-methyl-5,6,7,8-tetrahydro-[1,3,4]thiadiazolo[2′,3′:2,3]imidazo[4,5-c]pyridin-5-yl)-N,N-dimethylthiazole-2-carboxamide], `COC1(c2cnc(C3c4c(nc5sc(C)nn45)CCN3C(=O)COc3ccc(N4CCOCC4)nc3Cl)s2)COC1` (stereo not shown) [Example 1.65.1, 2-((2-chloro-6-morpholinopyridin-3-yl)oxy)-1-(5-(5-(3-methoxyoxetan-3-yl)thiazol-2-yl)-2-methyl-7,8-dihydro-[1,3,4]thiadiazolo[2′,3′:2,3]imidazo[4,5-c]pyridin-6(5H)-yl)ethanone] is 35-fold higher in IC50: 6 nM for the first, 208 nM for the second.

Compared with `CS(=O)(=O)Nc1ccc(OCC(=O)N2CCc3nc4scnn4c3C2c2ccc(Cl)cc2F)c(Cl)n1` (stereo not shown) [Example 2.1.1, N-(6-chloro-5-(2-(5-(4-chloro-2-fluorophenyl)-7,8-dihydro-[1,3,4]thiadiazolo[2′,3′:2,3]imidazo[4,5-c]-pyridin-6(5H)-yl)-2-oxoethoxy)pyridin-2-yl)methanesulfonamide], `Cc1nn2c3c(nc2s1)CCN(C(=O)COc1ccc(NS(C)(=O)=O)nc1Cl)C3c1ccc(C(C)(C)O)cc1F` (stereo not shown) [Example 1.80.1, N-(6-chloro-5-(2-(5-(2-fluoro-4-(2-hydroxypropan-2-yl)phenyl)-2-methyl-7,8-dihydro-[1,3,4]thiadiazolo[2′,3′:2,3]imidazo[4,5-c]pyridin-6(5H)-yl)-2-oxoethoxy)pyridin-2-yl)methanesulfonamide] is 8.9-fold higher in IC50: 11 nM for the first, 98 nM for the second.

Compared with `N#Cc1ccc(OCC(=O)N2CCc3nc4scnn4c3C2c2ccc(Cl)cc2F)c(Cl)c1` (stereo not shown) [Example 2.1.2, 3-chloro-4-(2-(5-(4-chloro-2-fluorophenyl)-7,8-dihydro-[1,3,4]thiadiazolo[2′,3′:2,3]imidazo[4,5-c]pyridin-6(5H)-yl)-2-oxoethoxy)benzonitrile], `CCc1nc(N2CCCS2(=O)=O)ccc1OCC(=O)N1CCc2nc3sc(C(F)(F)F)nn3c2[C@@H]1c1ccc(Cl)cc1F` [Example 5.1.4] is 4.4-fold lower in IC50: 31 nM for the first, 7 nM for the second. The second is the more potent here.

Compared with `Cc1nn2c3c(nc2s1)CCN(C(=O)COc1ccc(N2CC(F)(F)C2)nc1Cl)C3c1ncc(Cl)cc1F` (stereo not shown) [Example 1.33.2, 1-(5-(5-chloro-3-fluoropyridin-2-yl)-2-methyl-7,8-dihydro-[1,3,4]thiadiazolo[2′,3′:2,3]imidazo[4,5-c]pyridin-6(5H)-yl)-2-((2-chloro-6-(3,3-difluoroazetidin-1-yl)pyridin-3-yl)oxy)ethanone], `Cc1nn2c3c(nc2s1)CCN(C(=O)C1(Oc2ccc(NS(C)(=O)=O)nc2Cl)CC1)C3c1ccc(Cl)cc1F` (stereo not shown) [Example 1.4.54, N-(6-chloro-5-(1-(5-(4-chloro-2-fluorophenyl)-2-methyl-5,6,7,8-tetrahydro-[1,3,4]thiadiazolo[2′,3′:2,3]imidazo[4,5-c]pyridine-6-carbonyl)cyclopropoxy)pyridin-2-yl)methanesulfonamide] is 9.2-fold higher in IC50: 4 nM for the first, 37 nM for the second. The first is the more potent here.
